Data: PubChem BioAssay AID493250 (Broad Institute, 2011)
Active and inactive are the calls of the source.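 How the source made its calls: active means signal decrease with fitted half-maximal dose at or below ten times the highest valid tested dose; inconclusive means poor fit, or flat fit at 30 to 70% inhibition; inactive means the rest.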

What follows are compounds tested against Zinc finger protein mex-5 (Caenorhabditis elegans) (UniProt Q9XUB2) (assay: MEX-5 zinc finger-RNA interaction blockers – biochemical, fluorescence polarization, C. elegans, cherry-picked, round 3, dose response (AID 493250)). Conditions: purified MEX-5-MBP, FITC-TCR2 RNA fluorescence polarization.
Sequence of Zinc finger protein mex-5 (Caenorhabditis elegans) (Q9XUB2 whole entry, looked up): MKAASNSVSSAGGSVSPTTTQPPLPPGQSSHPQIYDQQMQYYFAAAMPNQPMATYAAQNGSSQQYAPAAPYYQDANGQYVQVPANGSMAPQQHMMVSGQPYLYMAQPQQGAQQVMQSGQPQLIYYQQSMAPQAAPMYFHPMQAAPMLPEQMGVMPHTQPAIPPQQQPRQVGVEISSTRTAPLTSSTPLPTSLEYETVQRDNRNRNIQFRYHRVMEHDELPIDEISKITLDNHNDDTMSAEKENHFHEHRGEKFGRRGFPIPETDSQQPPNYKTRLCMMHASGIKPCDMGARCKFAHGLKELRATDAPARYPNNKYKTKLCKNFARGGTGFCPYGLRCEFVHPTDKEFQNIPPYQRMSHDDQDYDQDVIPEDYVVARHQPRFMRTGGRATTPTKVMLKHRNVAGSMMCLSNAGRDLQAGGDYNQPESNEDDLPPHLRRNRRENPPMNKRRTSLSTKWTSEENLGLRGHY

| SMILES | AC50 |
| --- | --- |
| Cc1ccc(S(=O)(=O)c2cc3c(=O)n4ccccc4nc3n(C3CCCCC3)c2=N)cc1 | > 10 µM (inactive) |
| CCOC(=O)C1C(=O)C=C(/C=C/c2ccc(N(C)C)cc2)CC1c1ccccc1 (stereo not drawn) | 7.41 µM |
| CNC(=O)c1cc2ccc(OC)cc2oc1=O | > 10 µM (inactive) |
| O=C1C(Br)=Cc2cccc3cccc1c23 | 3.06 µM |
| COc1ccc(NC(=O)c2cccc(-c3ccc(O)cc3)c2)cn1 | 3.91 µM |
| Cc1nc2nc(-c3ccc(Cl)cc3)cn2nc1C | 9.89 µM |
| OCCCc1nc2n(n1)C(c1ccccc1Cl)C=C(c1cccs1)N2 (stereo not drawn) | 10.1 µM |
| COc1ccccc1/C=C1\SC(=S)N(CCC(=O)Nc2cc(C)on2)C1=O | > 10 µM (inactive) |
| CCN(CC)Cc1c(O)ccc2c1O/C(=C\C=C\c1ccccc1)C2=O | 4.38 µM |

Same assay, conditions: purified MEX-5-MBP, FITC-TCR2 RNA fluorescence polarization; at 10 µM (top of the series)

| SMILES | activity change, negative = inhibition |
| --- | --- |
| COc1ccc(OC)c(/C=N/NC(=O)c2ccc(=O)[nH]n2)c1 | inactive |
| Cc1ccc(N/N=C(\C#N)C(=O)c2ccsc2)cc1 | inactive |
| O=C(Nc1cccc2ncccc12)c1ccccc1[N+](=O)[O-] | inactive |
| CCn1c(O)c(N=NC(=O)CNC(=O)/C=C/c2ccco2)c2ccccc21 | inactive |
| Cn1c(CNC(=O)c2ccc(F)cc2)cc2ccccc21 | inactive |
| Cc1cccnc1Nc1nc(-c2ccc(O)cc2O)cs1 | inactive |
| Cc1cccn2c(=O)c3cc(S(=O)(=O)c4ccc(Br)cc4)c(=N)n(C4CCCCC4)c3nc12 | inactive |
| Cc1c(O)ccc(-c2[nH]ncc2-c2nc3ccccc3s2)c1O | inactive |
| O=C(Nc1cccnc1)c1cccs1 | inactive |
| NS(=O)(=O)c1ccc(N=Nc2ccc(=O)[nH]c2O)cc1 | inactive |
| CC(C)C(=O)OCC(=O)Nc1ccc2c(c1)CCC2 | inactive |
| N#CC1=C(N)Oc2c(O)cc3ccccc3c2C1c1ccsc1 (stereo not drawn) | inactive |
| CC(=O)Nc1ccc2c(c1)C(=O)N(c1cccc(C)c1)C2=O | inactive |
| CCc1nnc2c(N(C)C)nc3ccccc3n12 | inactive |
| CCCCCC(=O)N(Cc1ccccc1)c1c(N)n(CCOC)c(=O)[nH]c1=O | inactive |
| COc1cc2c(cc1OC)[C@@H](Cc1ccc(OCCC#N)cc1)N(C)CC2 | inactive |
| O=C(O)c1ccc(N2Cc3ccccc3C2)cc1O | inactive |
| O=S(=O)(O)c1nc2ccccc2n1Cc1ccc(Cl)cc1Cl | inactive |
| CCOc1ccc(/C=N/n2c(C)nc3ccccc3c2=O)cc1 | inactive |
| CC1=NN(C(N)=S)C(=O)C1N=Nc1cccc(Cl)c1C (stereo not drawn) | inactive |

| SMILES | activity change, negative = inhibition |
| --- | --- |
| Cn1nc(C(=O)NNC(=O)c2ccc(Cl)cc2)ccc1=O | inactive |
| COc1ccc(C(CC(=O)N2CCCC2)c2c(OC)cc(OC)c3ccc(=O)oc23)cc1 (stereo not drawn) | inactive |
| CSc1ccc(C(c2c(C(=O)O)[nH]c3ccccc23)c2c(C(=O)O)[nH]c3ccccc23)cc1 | inactive |
| O=C(O)c1cccc(NC(=S)N/N=C/c2c[nH]c3ccccc23)c1 | inactive |
| Cc1cccc(/C=N/NC(=O)Cn2nnnc2N)n1 | inactive |
| Cc1ccc(S(=O)(=O)c2cc3c(=O)n4cccc(C)c4nc3n(C3CCCCC3)c2=N)cc1 | inactive |
| COc1ccc(N(CCC#N)C(=O)/C(C#N)=C/c2cccs2)cc1 | inactive |
| COc1ccc2c(c1)NC(c1ccc(N(C)C)cc1)c1cccn1-2 (stereo not drawn) | inactive |
| CC1CN2C(c3ccc([N+](=O)[O-])cc3)=CSC2=N1 (stereo not drawn) | inactive |
| O=C1N=c2ccccc2=C1c1[nH]c(=S)[nH]c1O | inactive |
| Nc1c(NCc2ccccc2)c(=O)[nH]c(=O)n1Cc1ccccc1 | inactive |
| C=CCn1c(Cc2nc3ccc(Cl)cc3[nH]2)n[nH]c1=S | inactive |
| CCS(=O)(=O)c1ccc2oc(=O)c(/C=C(\O)c3ccc(Cl)cc3)nc2c1 | inactive |
| COc1cccc(NCc2cc(=O)oc3cc(C)c(O)cc23)c1 | inactive |
| CC(=O)Nc1ccc(/C=C/c2nc(-c3ccccc3O)n[nH]2)cc1 | inactive |
| COc1ccc(N=Nc2c(C)[nH][nH]c2=O)cc1 | inactive |
| CN(N)N=Nc1nc2c([nH]1)c(=O)n(C)c(=O)n2C | inactive |
| CC(=O)Nc1ccc(N=NC2C(=O)N(C(N)=S)N=C2C)cc1 (stereo not drawn) | inactive |
| COc1c(O)ccc(/C=C(\C#N)c2nc3ccccc3[nH]2)c1[N+](=O)[O-] | inactive |
